Laboratory results: patent US6200966A, “Compositions for inhibiting airway wall inflammation” (Amrad Operations Pty. Ltd., priority 1996, dated 2001)
“Also recorded” adds a separate entry of the source.

Assays:
[1] = test system: endothelial cells and fibroblasts; details: actively proliferating or non-quiescent; cited from earlier work
[2] = test system: cultured airway smooth muscle; details: cited from earlier work; for mitogenic activity on airway smooth muscle: various species
[3] = test system: human cultured airway smooth muscle cells; experiment: Protein synthesis: [3H]-leucine incorporation; assay type: cell-based; details: Table 5, unstimulated cells, mean
[4] = test system: human cultured airway smooth muscle cells; experiment: Protein synthesis: [3H]-leucine incorporation; assay type: cell-based; details: for [3H]-leucine incorporation: Table 5, unstimulated cells, mean
Description: (§1) Human bronchial airway smooth muscle was obtained from macroscopically normal lung resection specimens from lung transplant donors or recipients provided by the Alfred Hospital (Melbourne). Cultures were prepared as previously described in detail (Tomlinson et al., 1994). Briefly, the tissue was partially digested in Dulbecco's Modified Eagle's Medium (DMEM), [supplemented with 2 mM L-glutamine, 100 μg/ml streptomycin, 100 U/ml penicillin-G, 2 μg/ml amphotericin B, and 0.25% w/v bovine serum albumin (BSA)] containing 3 mg/ml collagenase for 30 minutes at 37° C. and approximately 0.5 g smooth muscle was further digested by a 2 hour incubation in 0.5 mg/ml elastase, followed by an 18 hour incubation in collagenase (3 mg/ml) at 37° C. Cell suspensions ere centrifuged (10 min, 100×g, 25° C.), washed three times in supplemented DMEM, resuspended in 25 ml DMEM containing 10% (v/v) heat-inactivated foetal calf serum (FCS), seeded into 25 cm^2 Falcon culture flasks and incubated (37° C., 5% CO2) for 7 to 10 days until monolayer confluence was reached. Cells were then harvested weekly by 10 min exposure to 0.5% trypsin, 1 mM EDTA and passaged at a 1:3 split ratio into 75 cm^2 Falcon culture flaskes. Cells at passage numbers 3 to 15 were used for experiments.
(§2) Cells were subcultured into 24-well plates at a 1:3 ratio and allowed to grow to monolayer confluency over a 72-96 hour period in an atmosphere of 5% CO2 in air at 37° C. The serum-containing medium was replaced with serum-free DMEM for a 24 hour period to produce growth arrest. In some experiments, the cells were pretreated with 2-methoxyestradiol 30 min before the addition of mitogen. The stimulant (mitogen) was added to the appropriate wells together with a supplement containing insulin, transferrin, and selenium (Monomed A, 1% v/v). Monomed A was added to provide progression factors which are essential for the mitogenic activity of growth factors such as thrombin, epidermal growth factor (EGF) and basic fibroblast growth factor (bFGF) (Stewart et al., 1995a). Mitogens and inhibitors were left in contact with cells from the time of addition until the end of the experiment, unless indicated otherwise. Cells were incubated for 24 hours (37° C., 5% CO2) before being pulsed with [^3 H]-thymidine (1 μCi/ml for four hours) to measure incorporation of radiolabel into newly synthesized DNA, according to out previous study (Stewart et al., 1995). Incorporation of radioactivity was determined by filtration at the end of the pulse-labelling period. The medium containing the radioactivity was aspirated and the cells were lysed by addition of 200 μl of 0.1M NaOH. The DNA was immobilised by filtration in a binding harvester (Packard Filtermate 196) on glass fibre filters (Packard, standard), which were then washed with 3×3 ml volumes of distilled water and a single 1 ml volume of 100% ethanol. The dried filters were counted in a Packard Topcount liquid scintillation counter. Protein synthesis rates were determined in experiments of analogous design to those described above, but [^3 H]-leucine replaced [^3 H]-thymidine in the pulsing incubation of 4 hours. Furthermore, in experiments to determine the effects of mitogens and 2-methoxyestradiol on the rate of protein synthesis, incubations with mitogen were carried out for a period of 48 hours. The longer duration of these experiments was required to allow sufficient time for cell division to occur.
(§3) Each treatment in an individual experiment was carried out in quadruplicate for DNA and protein synthesis experiments. Each experiment was performed in at least three different cultures obtained from three different individuals. For cell counting, single incubations were carried out in three cultures. Results are presented as grouped data from multiple cultures and are expressed as mean ±S. E. of n cultures. The degree of increment was calculated by dividing the response of treated wells by that of the control wells on the same 24-well plate.

[5] = test system: human cultured airway smooth muscle cells; experiment: DNA synthesis: [3H]-thymidine incorporation; assay type: cell-based
Description: as §1, §2, §3

[6] = test system: airway smooth muscle cells; experiment: Morphological changes (cell rounding); assay type: cell-based, human

## heparin [reference compound]
[1]
  proliferation of endothelial cells and fibroblasts: enhance endothelial cell proliferation
[2]
  effect on proliferation of cultured airway smooth muscle: inhibit proliferation of airway smooth muscle cells

## C[C@]12CC[C@@H]3c4ccc(O)cc4CC[C@H]3[C@@H]1CC[C@@H]2O [17β-estradiol, 1,3,5[10]-estratriene-3, 17β-diol, reference compound]
[3]; concentration 1.0
  [3H]-leucine incorporation: 89 % control
[3]; concentration 10.0
  [3H]-leucine incorporation: 100 % control
[4]; concentration 0.3
  [3H]-leucine incorporation: 103 % control
[4]; concentration 3.0
  [3H]-leucine incorporation: 87 % control
[5]; FCS 1%, 10 μM
  FCS (1%)-stimulated DNA synthesis, 10 μM: inhibition was observed at 10 μM
[5]; FCS 1%
  DNA synthesis in response to FCS (1%), 3 and 10 μM: inhibited DNA synthesis
  FCS (1%)-stimulated DNA synthesis, lower concentrations: enhanced; also recorded: increased DNA synthesis

## bFGF: human recombinant basic FGF
[2]
  mitogenic activity on airway smooth muscle: most effective proliferative agents
[5]; 300 pM bFGF, fold series
  DNA synthesis ([3H]-thymidine incorporation) over unstimulated: 22.5±5.3

## thrombin: thrombin (bovine plasma), mitogen
[2]
  mitogenic activity on airway smooth muscle: effective growth factor
[5]; 0.3 U/ml thrombin
  DNA synthesis ([3H]-thymidine incorporation) over unstimulated: 8.4±3.1 fold

## COc1cc2c(c(OC)c1OC)-c1ccc(OC)c(=O)cc1[C@@H](NC(C)=O)CC2 [colchicine, reference compound]
[6]; colchicine 0.1-10 μM
  shape changes: similar

## CCCCC[C@H](O)/C=C/[C@@H]1[C@@H](C/C=C\CCCC(=O)O)[C@H]2CO[C@@H]1C2 [U46619]
[2]
  mitogenic activity on airway smooth muscle: only weakly active

## CC#C[C@]1(O)CC[C@H]2[C@@H]3CCC4=CC(=O)CCC4=C3[C@@H](c3ccc(N(C)C)cc3)C[C@@]21C [RU 486, reference compound]
[6]; RU 486 as antagonist
  shape changes in response to colchicine or 2-methoxyestradiol: reduced the shape changes
[5]; RU 486 (1 μM), 2-methoxyestradiol 3 μM, FCS 1%
  effect on inhibition of DNA synthesis by 2-methoxyestradiol: no effect

## C[C@]12CC[C@@H]3c4cc(O)c(O)cc4CC[C@H]3[C@@H]1CC[C@@H]2O [2-hydroxyestradiol, 1,3,5[10]-estratriene-2,3,17β-triol]
[3]; concentration 10.0
  [3H]-leucine incorporation: 51 % control
[4]; concentration 0.3
  [3H]-leucine incorporation: 107 % control
[4]; concentration 1.0
  [3H]-leucine incorporation: 94 % control
[4]; concentration 3.0
  [3H]-leucine incorporation: 56 % control
[5]; FCS 1%
  DNA synthesis in response to FCS (1%), 3 and 10 μM: inhibited DNA synthesis
  FCS (1%)-stimulated DNA synthesis, lower concentrations: increased DNA synthesis

## COc1cc2c(cc1O)CC[C@@H]1[C@@H]2CC[C@]2(C)C(=O)CC[C@@H]12 [2-methoxyestrone]
[5]; thrombin
  concentration-response of enhancement of thrombin-stimulated DNA synthesis: bell-shaped concentration-response curve
[5]; thrombin 0.3 U/ml, 10 μM
  enhancement of thrombin-stimulated DNA synthesis, 10 μM: level of enhancement declined at 10 μM
[5]; thrombin 0.3 U/ml, up to 3 μM
  thrombin-stimulated DNA synthesis (analogues): enhanced thrombin-stimulated DNA synthesis

## C[C@@H]1C[C@H]2[C@@H]3CCC4=CC(=O)C=C[C@]4(C)[C@@]3(F)[C@@H](O)C[C@]2(C)[C@@]1(O)C(=O)CO [dexamethasone]
[2]
  effect on proliferation of cultured airway smooth muscle: anti-proliferative effect

## NCCc1c[nH]c2ccc(O)cc12 [5HT, Serotonin, reference compound]
[4]; 5HT 10 nM
  incorporation of [3H]-leucine by serotonin: increased incorporation of [^3 H]-leucine
[5]; 5HT 0.1 nM up to 10 μM
  incorporation of [3H]-thymidine by serotonin: no effect

## EGF: epidermal growth factor
[2]
  mitogenic activity on airway smooth muscle: most effective proliferative agents
[5]; 3 nM EGF, fold series
  DNA synthesis ([3H]-thymidine incorporation) over unstimulated: 4.5±0.7

## endothelin-1
[2]
  mitogenic activity on airway smooth muscle: only weakly active

## NCCc1c[nH]cn1 [histamine]
[2]
  mitogenic activity on airway smooth muscle: completely inactive
